According to patent US20250152387A1, “COBALT-CHROMIUM ALLOY STENT AND DRUG ELUTING STENT” (AmsinoMed Medical Co., Ltd, priority 2022, published 2025):

How the values were obtained:
[1] = tested on: vascular endothelial cells (HUVECs); assay: CCK-8 cell viability assay on vascular endothelial cells; assay type: cell-based; conditions: 24 h and 48 h
Experimental: The range of drug concentrations at which ATO and TAC were friendly to vascular endothelial cell viability was determined at the cellular level.
The changes in the cell viability of vascular endothelial cells (HUVECs) under the action of ATO, TAC and rapamycin (RAP) at different concentrations for 24 h and 48 h were studied by CCK-8 cell viability assay, respectively.

[2] = tested on: vascular smooth muscle cells (HASMCs); assay: CCK-8 cell viability assay on vascular smooth muscle cells; assay type: cell-based; conditions: different concentrations, 24 h and 48 h
Experimental: The range of drug concentrations at which ATO and TAC were friendly to vascular smooth muscle cell viability was determined at the cellular level.
The changes in the cell viability of vascular smooth muscle cells (HASMCs) under the action of ATO, TAC and rapamycin (RAP) at different concentrations for 24 h and 48 h were studied by CCK-8 cell viability assay, respectively.

[3] = tested on: IL-6, IL-10 and TNF-α gene expression in HUVECs; assay: PCR of inflammatory factor gene expression in LPS-induced HUVECs; assay type: cell-based; conditions: 10 nM; HUVECs induced with LPS 1 μg/ml for 6 h
Experimental: The range of effective concentrations at which TAC inhibited the inflammatory response of vascular endothelial cells was verified at the cellular level.
After induction of HUVECs with LPS at a concentration of 1 μg/ml for 6 h, the inhibitory effects of TAC at different concentrations on the inflammatory response of HUVECs were detected by PCR.

[4] = Drug release from coated stents soaked in PBS solution in a shaker; assay type: physicochemical; conditions: at 1 d; release curve obtained by adjustment
Excerpt: The process of testing the release properties of tacrolimus of the present invention comprises: soaking drug stents in a PBS solution, placing the stents in a shaker (shaking speed of 80 r/min), and taking out the stents at the corresponding time points (1 d, 7 d, 14 d, 21 d, and 28 d) (at least 3 stents for each time point), and testing the concentration of tacrolimus. The content of tacrolimus can be tested using the detection method in “Determination of Tacrolimus Tablets by HPLC” (Lv, Yongchao, Song, Yucai; Journal of Pharmaceutical Research 2013 Vol. 32, No. 4, page 1).
For the drug release properties of the present invention, the release process comprises: soaking drug stents in a PBS solution, placing the stents in a shaker (shaking speed of 100 r/min), and taking out 5 ml of the solution at the corresponding time points (1 d, 7 d, 14 d, 21 d, and 28 d) (at least 3 stents for each time point) for testing. The release of the drug arsenic trioxide is detected using the method disclosed in “Preparation and the Release Characteristic in vitro of Arsenic Trioxide Albumin Nanospheres” (Zhou, Jie, Zeng, Fuqing, Gao, Xiang, Xie, Shusheng, Wei, Shuli, Chinese Journal of New Drugs, pages 54-57).

With `CO[C@H]1C[C@@H]2CC[C@@H](C)[C@@](O)(O2)C(=O)C(=O)N2CCCC[C@H]2C(=O)O[C@H]([C@H](C)C[C@@H]2CC[C@@H](O)[C@H](OC)C2)CC(=O)[C@H](C)/C=C(\C)[C@@H](O)[C@@H](OC)C(=O)[C@H](C)C[C@H](C)/C=C/C=C/C=C/1C` [RAP, rapamycin] the “concentration with no significant effect on cell viability” value [1] was no more than 100 nM.
For `C=CC[C@@H]1/C=C(\C)C[C@H](C)C[C@H](OC)[C@H]2O[C@@](O)(C(=O)C(=O)N3CCCC[C@H]3C(=O)O[C@H](/C(C)=C/[C@@H]3CC[C@@H](O)[C@H](OC)C3)[C@H](C)[C@@H](O)CC1=O)[C@H](C)C[C@@H]2OC` [TAC, tacrolimus], the “concentration with no significant effect on cell viability” value [1] was no more than 50 nM, the “effect on the viability of vascular smooth muscle cells” value [2] was “no significant inhibitory effect” and the “gene expression levels of cellular inflammatory factors IL-6, IL-10 and TNF-α” value [3] was “effectively reduce”. It also gave a tacrolimus released [4] of no less than 40%.
